Tests used:
Assay type in all cases: in vivo
[1] = system: barnyardgrass (Echinochloa crus-galli); experiment: Test A postemergence application, visual injury rating; conditions: 0 to 100 scale, 0 no effect, 100 complete control
Summary of the method: (§1)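 Seeds sown in a loam soil–sand blend received a directed preemergence soil spray of test chemical in a non-phytotoxic solvent mixture with surfactant. Postemergence plants were sprayed at 2 to 10 cm, one- to two-leaf stage. After approximately 10 d in greenhouse, injury was visually rated 0 (no effect) to 100 (complete control) against untreated controls.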

corn (Zea mays) = experiment: as above; conditions: 0 to 100 scale, 0 no effect, 100 complete control
Summary of the method: as §1

[2] = system: blackgrass (Alopecurus myosuroides); experiment: as above; conditions: 0 to 100 scale, 0 no effect, 100 complete control
Summary of the method: as §1

kochia (Kochia scoparia) [3] = experiment: as above; conditions: 0 to 100 scale, 0 no effect, 100 complete control
Summary of the method: as §1

[4] = system: pigweed (Amaranthus retroflexus); experiment: as above; conditions: 0 to 100 scale, 0 no effect, 100 complete control
Summary of the method: as §1

[5] = system: wheat (Triticum aestivum); experiment: as above; conditions: 0 to 100 scale, 0 no effect, 100 complete control
Summary of the method: as §1

[6] = system: ryegrass, It. (Italian ryegrass, Lolium multiflorum); experiment: as above; conditions: 0 to 100 scale, 0 no effect, 100 complete control
Summary of the method: as §1

[7] = system: ragweed (common ragweed, Ambrosia elatior); experiment: as above; conditions: 0 to 100 scale, 0 no effect, 100 complete control
Summary of the method: as §1

[8] = system: galium (catchweed bedstraw, Galium aparine); experiment: as above; conditions: 0 to 100 scale, 0 no effect, 100 complete control
Summary of the method: as §1

[9] = system: foxtail, giant (giant foxtail, Setaria faberii); experiment: as above; conditions: 0 to 100 scale, 0 no effect, 100 complete control
Summary of the method: as §1

[10] = system: barnyardgrass (Echinochloa crus-galli); experiment: Test B flooded paddy test, visual rating; conditions: Flood, 250 g ai/ha, applied to paddy water, rated after 13 to 15 d
Summary of the method: (§2)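 Plants at the 2-leaf stage were flooded to 3 cm above soil, and test compounds were applied directly into the paddy water, which was held at that depth throughout. After 13 to 15 d in a greenhouse, injury was rated visually against untreated controls on a 0–100 scale (0 no effect, 100 complete control).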

rice (Oryza sativa) = experiment: Test B flooded paddy test, visual rating; conditions: Flood, 250 g ai/ha, applied to paddy water, rated after 13 to 15 d
Summary of the method: as §2

[11] = system: sedge, umbrella (small-flower umbrella sedge, Cyperus difformis); experiment: Test B flooded paddy test, visual rating; conditions: Flood, 250 g ai/ha, applied to paddy water, rated after 13 to 15 d
Summary of the method: as §2

[12] = system: ducksalad (Heteranthera limosa); experiment: Test B flooded paddy test, visual rating; conditions: Flood, 250 g ai/ha, applied to paddy water, rated after 13 to 15 d
Summary of the method: as §2

[13] = system: barnyardgrass (Echinochloa crus-galli); experiment: Test A preemergence, directed soil spray, visual injury rating; conditions: 0 is no effect, 100 is complete control
Summary of the method: as §1

kochia (Kochia scoparia) [14] = experiment: as above; conditions: 0 is no effect, 100 is complete control
Summary of the method: as §1

[15] = system: pigweed (Amaranthus retroflexus); experiment: as above; conditions: 0 is no effect, 100 is complete control
Summary of the method: as §1

[16] = system: ryegrass, It. (Italian ryegrass, Lolium multiflorum); experiment: as above; conditions: 0 is no effect, 100 is complete control
Summary of the method: as §1

[17] = system: ragweed (common ragweed, Ambrosia elatior); experiment: as above; conditions: 0 is no effect, 100 is complete control
Summary of the method: as §1

[18] = system: foxtail, giant (giant foxtail, Setaria faberii); experiment: as above; conditions: 0 is no effect, 100 is complete control
Summary of the method: as §1

SMILES | Barnyardgrass plant response rating ([1]; 31 g ai/ha) | Barnyardgrass plant response rating ([1]; 125 g ai/ha) | Corn plant response rating (corn (Zea mays); 31 g ai/ha) | Corn plant response rating (corn (Zea mays); 125 g ai/ha) | Blackgrass plant response rating ([2]; 31 g ai/ha) | Blackgrass plant response rating ([2]; 125 g ai/ha) | Kochia plant response rating (kochia (Kochia scoparia) [3]; 31 g ai/ha) | Kochia plant response rating (kochia (Kochia scoparia) [3]; 125 g ai/ha) | Pigweed plant response rating ([4]; 31 g ai/ha) | Pigweed plant response rating ([4]; 125 g ai/ha) | Wheat plant response rating ([5]; 31 g ai/ha) | Wheat plant response rating ([5]; 125 g ai/ha) | Ryegrass, It. plant response rating ([6]; 31 g ai/ha) | Ryegrass, It. plant response rating ([6]; 125 g ai/ha) | Ragweed plant response rating ([7]; 31 g ai/ha) | Ragweed plant response rating ([7]; 125 g ai/ha) | Galium plant response rating ([8]; 31 g ai/ha) | Galium plant response rating ([8]; 125 g ai/ha) | Foxtail, Giant plant response rating ([9]; 31 g ai/ha) | Foxtail, Giant plant response rating ([9]; 125 g ai/ha) | other results
CCC(=O)Oc1c(C)nn(C)c(=O)c1-c1ccc(Cl)c2cc(C)oc12 [Compound 41] | 20 | 50 | 0 | 20 | 20 | 50 | 0 | 0 | 40 | 70 | 0 | 0 | 90 | 100 | 80 | 80 | 90 | 100 | 20 | 60 | Barnyardgrass plant response rating (0 to 100 scale, 0 is no effect, 100 is complete control) [10]: 20; Rice plant response rating (0 to 100 scale, 0 is no effect, 100 is complete control) (rice (Oryza sativa)): 0; Sedge, Umbrella plant response rating (0 to 100 scale, 0 is no effect, 100 is complete control) [11]: 75; Ducksalad plant response rating (0 to 100 scale, 0 is no effect, 100 is complete control) [12]: 20; Plant response rating (0 to 100 scale), Barnyardgrass ([13]; 31 g ai/ha): 0; Plant response rating (0 to 100 scale), Barnyardgrass ([13]; 125 g ai/ha): 70; Plant response rating (0 to 100 scale), Kochia (kochia (Kochia scoparia) [14]; 31 g ai/ha): 0; Plant response rating (0 to 100 scale), Kochia (kochia (Kochia scoparia) [14]; 125 g ai/ha): 0; Plant response rating (0 to 100 scale), Pigweed ([15]; 31 g ai/ha): 0; Plant response rating (0 to 100 scale), Pigweed ([15]; 125 g ai/ha): 90; Plant response rating (0 to 100 scale), Ryegrass, It. ([16]; 31 g ai/ha): 90; Plant response rating (0 to 100 scale), Ryegrass, It. ([16]; 125 g ai/ha): 100; Plant response rating (0 to 100 scale), Ragweed ([17]; 31 g ai/ha): 0; Plant response rating (0 to 100 scale), Ragweed ([17]; 125 g ai/ha): 70; Plant response rating (0 to 100 scale), Foxtail, Giant ([18]; 31 g ai/ha): 20; Plant response rating (0 to 100 scale), Foxtail, Giant ([18]; 125 g ai/ha): 80
CC(=O)Oc1c(C)nn(C)c(=O)c1-c1ccc(Cl)c2cc(C)oc12 [Compound 42] | 10 | 40 | 0 | 10 | 20 | 50 | 0 | 0 | 30 | 50 | 0 | 0 | 70 | 90 | 20 | 10 | 90 | 90 | 10 | 30 | Barnyardgrass plant response rating (0 to 100 scale, 0 is no effect, 100 is complete control) [10]: 0; Rice plant response rating (0 to 100 scale, 0 is no effect, 100 is complete control) (rice (Oryza sativa)): 0; Sedge, Umbrella plant response rating (0 to 100 scale, 0 is no effect, 100 is complete control) [11]: 60; Ducksalad plant response rating (0 to 100 scale, 0 is no effect, 100 is complete control) [12]: 80; Plant response rating (0 to 100 scale), Barnyardgrass ([13]; 31 g ai/ha): 10; Plant response rating (0 to 100 scale), Barnyardgrass ([13]; 125 g ai/ha): 60; Plant response rating (0 to 100 scale), Kochia (kochia (Kochia scoparia) [14]; 31 g ai/ha): 0; Plant response rating (0 to 100 scale), Kochia (kochia (Kochia scoparia) [14]; 125 g ai/ha): 0; Plant response rating (0 to 100 scale), Pigweed ([15]; 31 g ai/ha): 0; Plant response rating (0 to 100 scale), Pigweed ([15]; 125 g ai/ha): 40; Plant response rating (0 to 100 scale), Ryegrass, It. ([16]; 31 g ai/ha): 60; Plant response rating (0 to 100 scale), Ryegrass, It. ([16]; 125 g ai/ha): 90; Plant response rating (0 to 100 scale), Ragweed ([17]; 31 g ai/ha): 30; Plant response rating (0 to 100 scale), Ragweed ([17]; 125 g ai/ha): 40; Plant response rating (0 to 100 scale), Foxtail, Giant ([18]; 31 g ai/ha): 10; Plant response rating (0 to 100 scale), Foxtail, Giant ([18]; 125 g ai/ha): 50
